31 compounds from patent US5073566A, “Angiotensin II antagonist 1,3-imidazoles and use thereas” (Eli Lilly and Company, priority 1989, dated 1991) can be followed below.

Assay [1] addresses T1, angiotensin-induced vasoconstriction (rabbit aorta) (Oryctolagus cuniculus, UniProt P34976).
T1 construct: the thoracic aortas were removed and cleaned of excess fat and connective tissue; from tissue; host or cells: thoracic aorta rings of New Zealand white rabbits
T1 sequence (P34976 1-359): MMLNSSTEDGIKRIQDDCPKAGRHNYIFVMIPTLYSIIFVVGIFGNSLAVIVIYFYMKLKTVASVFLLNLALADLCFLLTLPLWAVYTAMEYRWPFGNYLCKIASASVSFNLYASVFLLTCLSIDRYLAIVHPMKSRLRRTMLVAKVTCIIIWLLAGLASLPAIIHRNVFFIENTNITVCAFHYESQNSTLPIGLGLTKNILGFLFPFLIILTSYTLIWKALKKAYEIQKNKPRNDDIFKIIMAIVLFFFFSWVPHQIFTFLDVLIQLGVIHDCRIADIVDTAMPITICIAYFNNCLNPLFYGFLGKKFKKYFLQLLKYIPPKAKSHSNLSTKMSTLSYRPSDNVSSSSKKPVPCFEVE
The experiment in a line: Rabbit Aorta Test System: antagonism of angiotensin II-induced contraction of aortic rings. It is filed as cell-based, New Zealand white rabbits.
Method: The ability to antagonize angiotensin-induced vasoconstriction was evaluated in the rabbit aorta test system.
New Zealand white rabbits (Hazelton, 2-3 kg) were sacrificed by cervical dislocation and the thoracic aortas were removed and cleaned of excess fat and connective tissue. Rings of tissue (3 mm wide) were mounted in 10 ml tissue baths between 2 L-shaped stainless steel hooks. The lower hook was attached to a stationary rod and the upper hook to a force displacement transducer (Grass model FT.03). The bath chambers were maintained at 37° C., aerated with 95% O2 /5% CO2, and contained physiological solution of the following composition (mM): NaCl, 117; glucose, 5.6; NaH2 PO4, 1.0; MgSO4, 0.7; KCl, 5.2; CaCl2, 1.8; NaHCO3, 26; and phentolamine HCl, 0.003.
Rings were equilibrated for 1 hour with 2 g of tension. During the equilibration period, the tissues were washed by overflow every 15 minutes. Rings were then exposed to 10^-8 M angiotensin II (AII) and were allowed to contract until a steady state was reached. Tissues were then washed every 15 minutes for 1 hour. This was repeated every hour until the AII response stabilized. A cumulative concentration-response curve to AII (10^-10 to 10^-7 M) was then obtained. At the conclusion of the concentration-response curve, tissues were washed every 2 minutes until baseline tension was reached, then every 15 minutes for 30 minutes. Compounds were added in a volume of 10 μl DMSO and allowed to incubate for 30 minutes before repeating the concentration-response curve to AII. Contractions to AII were expressed as a percent of the maximum contraction obtained in the control curve (the first AII concentration-response curve). EC50 's (concentration that contracted the tissues to 1/2 the control maximum) for each curve were calculated using a 4 parameter logistics model (NonLin, SAS institute).

Another assay relates to angiotensin II receptor. The experiment in a line: Adrenal Glomerulosa Test System: I125-angiotensin II binding to adrenal membranes. The following applies: percent inhibition of I125 angiotensin binding at 10^-5 M of antagonist; rat adrenal membranes; 0.1 nM I125-angiotensin II.
The mark [2] stands for this setting: pA2 = -log KB, KB = [molar concentration of antagonist]/[(EC50 AII with antagonist/EC50 AII without antagonist)-1], 30 min incubation, AII 10^-10 to 10^-7 M, read-out: Rabbit Aorta (pA2) (converted).

Where a name gives a salt, the structure may show the parent alone. Read-outs that look alike come from different tables or passages of the source.

Method for angiotensin II receptor: The ability for compounds of Formula I to block angiotensin II receptor binding was determined using the adrenal glomerulosa assay.
Binding of I^125 -angiotensin II to adrenal membranes was routinely carried out in 96-well filtration plates. Adrenal membranes were prepared from the capsular portion (glomerulosal layer attached) of rat adrenal glands by differential centrifugation. Briefly, capsules were homogenized in a solution containing sucrose, 250 mM; MgCl2, 1 mM; and tris, 5 mM at pH 7.5 and 4° C. using a polytron at setting 5 for 20 seconds. The homogenate was stirred, gently, for 15 minutes at 4° C. and then centrifuged 10 minutes, at 1000×g, 4° C. The supernatant was centrifuged 30 minutes, at 30,000 ×g, 4° C. and the resulting pellet resuspended in 50 mM tris. Membrane preparations were stored in aliquots at -70° C. until used. Binding of I^125 -angiotensin II to adrenal membranes was performed at room temperature for 90 minutes in 96-well plates containing a hydrophilic polyvinylidene fluoride membrane (0.45 μm, millipore-GV multiscreen). Each 250 μl incubate contained the following (final concentration): tris, 50 mM; NaCl, 120 mM; MgCl2, 5 mM; dithiothrietol 1 mM; bovine serum albumin, 0.05%; I^125 -angiotensin II, 0.1 nM; and adrenal membrane protein, 8-15 μg. Antagonists were added in concentrations from 10 nM to 100 μM. Non-specific binding was measured in the presence of 0.1 μM Sar1, Ile8 angiotensin II. Binding was terminated by vacuum filtration. Receptor-ligand complex trapped on filters was washed 3 times with 300 μl ice-cold wash solution (tris, 50 mM; NaCl, 120 mM; MgCl2, 5 mM; dithiothrietol, 1 mM). Filter discs were dried, punched out and counted in a gamma counter at 52% efficiency. Specific binding represented 96% of total binding (approximately 150 fmol angiotensin II/mg protein). Data are expressed as the percent inhibition of I^125 angiotensin binding at 10^-5 M of antagonist.

On to `CCCCCCC(C(=O)OCC)n1cnc(NC(=O)c2ccccc2C(=O)O)c1` (stereo not drawn) [Example 5, 4-[(2-Carboxybenzoyl)amino]-α-hexyl-1H-imidazole-1-acetic acid ethyl ester], for which the Kb in assay [1] (setting [2]) is 3.31 µM. The “Adrenal Glomerulosa (% Inhibition of Binding)” value in the assay on angiotensin II receptor is listed as 39%. On to `CCCCCCC(C(=O)OCC)c1ccc(NC(=O)c2ccccc2C(=O)O)cc1` (stereo not drawn) [Example 9, 4-[(2-Carboxybenzoyl)amino]-α-hexylbenzene-acetic acid ethyl ester], for which, in assay [1] (setting [2]), the Kb is 18.2 µM. In addition, the “Adrenal Glomerulosa (% Inhibition of Binding)” value with angiotensin II receptor was determined as 25%.

For `CCCCCCC(CC(=O)OC)n1cnc(NC(=O)c2ccccc2C(=O)O)c1` (stereo not drawn) [Example 10, 4-[(2-Carboxybenzoyl)amino]-β-hexyl-1H-imidazole-1-propanoic acid methyl ester], the Kb in assay [1] (setting [2]) is 2.34 µM. For the same compound, the “Adrenal Glomerulosa (% Inhibition of Binding)” value in the assay with angiotensin II receptor was found to be 57%.

For the compound `CCCCCCC(C#N)n1cnc(NC(=O)c2ccccc2C(=O)O)c1` (stereo not drawn) [Example 12, 4-[(2-Carboxybenzoyl)amino]-α-hexyl-1H-imidazole-1-acetonitrile], in assay [1] (setting [2]), the Kb was 2.51 µM. Besides, in the assay with angiotensin II receptor, the “Adrenal Glomerulosa (% Inhibition of Binding)” value came out at 44%. For `CCCCCCC(C(=O)OCC)n1cnc(NC(=O)C(O)(c2ccccc2)c2ccccc2)c1` (stereo not drawn) [Example 14, α-Hexyl-4-[(diphenylhydroxyacetyl)amino]-1H-imidazole-1-acetic acid ethyl ester], in assay [1], the Kb is 55 µM. Moreover, the “Adrenal Glomerulosa (% Inhibition of Binding)” value in the assay with angiotensin II receptor is 2%. For the compound `CCCCCCC(C(=O)OCC)n1cnc(NC(=O)C2c3ccccc3-c3ccccc32)c1` (stereo not drawn) [Example 15, 4-[(9H-Fluoren-9-ylcarbonyl)amino]-αhexyl-1H-imidazole-1-acetic acid ethyl ester], the Kb in assay [1] (setting [2]) was 75.9 µM. Also, the “Adrenal Glomerulosa (% Inhibition of Binding)” value in the assay with angiotensin II receptor came to 5%.

Regarding `CCCCCCC(C(=O)OCC)c1ccc(NC(=O)C2c3ccccc3-c3ccccc32)cc1` (stereo not drawn) [Example 18, 4-[(9H-Fluoren-9-ylcarbonyl)amino]-α-hexylbenzeneacetic acid ethyl ester], the Kb in assay [1] (setting [2]) was 794 µM. Further, the “Adrenal Glomerulosa (% Inhibition of Binding)” value with angiotensin II receptor worked out at 3%. The like results for `CCCCCCC(C(=O)O)n1cnc(NC(=O)C(CC)(c2ccccc2)c2ccccc2)c1` (stereo not drawn) [Example 26, α-Hexyl-4-[(1-oxo-2,2-diphenylbutyl)amino]-1H-imidazole-1-acetic acid] were, in that order, 10.2 µM and 57%.

As to `CCCCCCC(CC(=O)O)n1cnc(NC(=O)c2cccc(O)c2C(=O)O)c1.O` (stereo not drawn) [Example 27, β-Hexyl-4-[(2-carboxy-3-hydroxybenzoyl)amino]-1H-imidazole-1-propanoic acid hydrate], the Kb in assay [1] (setting [2]) is 0.141 µM. Moreover, the “Adrenal Glomerulosa (% Inhibition of Binding)” value in the assay on angiotensin II receptor turned out to be 64%. With `CCCCCCC(C(=O)O)n1cnc(NC(=O)c2ccc(C)cc2C(=O)O)c1` (stereo not drawn) [Example 28, α-Hexyl-4-[(2-carboxy-4-methylbenzoyl)amino]-1H-imidazole-1-acetic a cid], in assay [1] (setting [2]), the Kb was 3.47 µM. Moreover, the “Adrenal Glomerulosa (% Inhibition of Binding)” value with angiotensin II receptor stood at 10%.

As for `CCCCCCC(C(=O)O)n1cnc(NC(=O)C(O)(c2ccccc2)c2ccccc2)c1` (stereo not drawn) [Example 29, α-Hexyl-[(hydroxydiphenylacetyl)amino]-1H-imidazole-1-acetic acid hydrochloride], the Kb in assay [1] is 25.7 µM. As for `CCCCCCC(C(=O)O)n1cnc(NC(=O)c2cccc(O)c2C(=O)O)c1` (stereo not drawn) [Example 30, α-Hexyl-4-[(2-carboxy-3-hydroxybenzoyl)amino]-1H-imidazole-1-acetic monohydrate], the Kb in assay [1] (setting [2]) is 0.11 µM. In addition, the “Adrenal Glomerulosa (% Inhibition of Binding)” value in the assay with angiotensin II receptor worked out at 66%. The like results for `CCCCCCC(C(=O)O)n1cnc(NC(=O)C2c3ccccc3-c3ccccc32)c1` (stereo not drawn) [Example 31, α-Hexyl-9-[(9H-fluoren-9-ylcarbonyl)amino]-1H-imidazole-1-acetic acid hydrochloride] were, in that order, 3.09 µM and 70%. The like results for `CCCCCCC(C(=O)O)n1cnc(NC(=O)C2c3ccccc3Oc3ccccc32)c1.Cl.O` (stereo not drawn) [Example 32, α-Hexyl-4-[(9H-xanthen-9-ylcarbonyl)amino]-1H-imidazole-1-acetic acid hydrochloride monohydrate] were, in that order, 21.4 µM and 54%. The like results for `CCCCCCC(C(=O)O)n1cnc(NC(=O)c2ccccc2C(=O)O)c1` (stereo not drawn) [Example 33, 4-[(2-Carboxybenzoyl)amino]-α-hexyl-1H-imidazole-1-acetic acid] were, in that order, 0.631 µM and 42%.

As to `CCCCCCC(C(=O)O)n1cnc(NC(=O)Cc2ccccc2C(=O)O)c1.O` (stereo not drawn) [Example 34, α-Hexyl-4-{[(2-carboxyphenyl)acetyl]-amino}-1H-imidazole-1-aceticacid hydrate], the Kb in assay [1] (setting [2]) was 1.91 µM. The “Adrenal Glomerulosa (% Inhibition of Binding)” value in the assay on angiotensin II receptor is given as 31%. The like results for `CCCCCCC(C(=O)O)n1cnc(NC(=O)c2c(C(=O)O)ccc3ccccc23)c1` (stereo not drawn) [Example 35, α-Hexyl-4-{[(2-carboxy-1-naphthalenyl)carbonyl]amino}-1H-imidazole-1-acetic acid] were, in that order, 2.63 µM and 36%. The like results for `CCCCCCC(C(=O)O)n1cnc(NC(=O)c2cc(C(=O)O)ccc2O)c1` (stereo not drawn) [Example 36, α-Hexyl-4-[(2-hydroxy-5-carboxybenzoyl)amino]-1H-imidazole-1-acetic acid] were, in that order, 11.7 µM and 5%. The like results for `CCCCCCC(C(=O)O)n1cnc(NC(=O)c2c(F)cccc2C(=O)O)c1` (stereo not drawn) [Example 37, 4-[(2-Carboxy-6-fluorobenzoyl)amino]-α-hexyl-1H-imidazole-1-acetic a cid hydrate (1:2.5)] were, in that order, 1.58 µM and 0%. In the case of `CCCCCCC(C(=O)O)c1ccc(NC(=O)c2ccccc2C(=O)O)cc1` (stereo not drawn) [Example 38, α-Hexyl-4-[(2-carboxybenzoyl)amino]benzeneacetic acid], the Kb in assay [1] (setting [2]) is 1.66 µM. Also, in the assay on angiotensin II receptor, the “Adrenal Glomerulosa (% Inhibition of Binding)” value worked out at 30%. The like results for `CCCCCCC(CC(=O)O)n1cnc(NC(=O)c2ccccc2C(=O)O)c1.O` (stereo not drawn) [Example 39, 4-[(2-Carboxybenzoyl)amino]-β-hexyl-1H-imidazole-1-propanoic acid monohydrate] were, in that order, 0.661 µM and 44%. The like results for `CCCCCCC(C(=O)O)n1cnc(NC(=O)c2c(C(=O)O)cccc2[N+](=O)[O-])c1` (stereo not drawn) [Example 40, α-Hexyl-4-[(2-carboxy-6-nitrobenzoyl)-amino]-1H-imidazole-1-acetic a cid] were, in that order, 1.62 µM and 9%. The like results for `CCCCCCC(CCC(=O)O)n1cnc(NC(=O)c2ccccc2C(=O)O)c1` (stereo not drawn) [Example 41, 4-[(2-Carboxybenzoyl)amino]-γ-hexyl-1H-imidazole-1-butanoic acid hemihydrate] were, in that order, 0.646 µM and 30%. `CCCCCCC(C(=O)O)n1cnc(NC(=O)c2ccccc2-c2nnn[nH]2)c1.O` (stereo not drawn) [Example 42, α-Hexyl-4-{[2-(tetrazol-5-yl)benzoyl]-amino}-1H-imidazole-1-acetic a cid monohydrate]: the Kb in assay [1] (setting [2]) was 0.331 µM. In the assay on angiotensin II receptor, the “Adrenal Glomerulosa (% Inhibition of Binding)” value stood at 58%. The like results for `CCCCCCC(C(=O)O)n1cnc(NC(=O)c2ccccc2CC(=O)O)c1.O` (stereo not drawn) [Example 43, 4-{[2-(Carboxymethyl)benzoyl]amino}-α-hexyl-1H-imidazole-1-aceticacid monohydrate] were, in that order, 0.955 µM and 0%. With `CCCCCCC(C(=O)O)n1cnc(C(=O)NC2c3ccccc3-c3ccccc32)c1.Cl` (stereo not drawn) [Example 44, α-Hexyl-4-{[(9H-fluoren-9-yl)amino]-carbonyl}-1H-imidazole-1-acetic acid hydrochloride], the Kb in assay [1] (setting [2]) was 3.98 µM. For the same compound, the “Adrenal Glomerulosa (% Inhibition of Binding)” value in the assay on angiotensin II receptor turned out to be 67%. The like results for `CCCCCCC(C(=O)O)n1cnc(NC(=O)c2cccc([N+](=O)[O-])c2C(=O)O)c1.O` (stereo not drawn) [Example 45, α-Hexyl-4-[(2-carboxy-3-nitrobenzoyl)-amino]-1H-imidazole-1-acetic a cid hydrate] were, in that order, 4.17 µM and 0%. Regarding `CCCCCCC(C(=O)O)n1cnc(C(=O)NCc2ccc(O)cc2)c1.Cl` (stereo not drawn) [Example 81, α-Hexyl-4-({[(4-hydroxyphenyl)methyl]-amino}carbonyl)-1H-imidazole-1-acetic acid hydrochloride], the “Adrenal Glomerulosa (% Inhibition of Binding)” value with angiotensin II receptor came to 41%. Still for that read-out and setting: as for `CCCCCCC(C(=O)O)n1cnc(C(=O)Nc2ccccc2O)c1.Cl` (stereo not drawn) [Example 82, α-Hexyl-4-{[(2-hydroxyphenyl)amino]-carbonyl}-1H-imidazole-1-acetic acid hydrochloride], the figure is 62%; as for `CCCCC(C(=O)O)n1cnc(C(=O)Nc2ccc(O)cc2)c1.Cl` (stereo not drawn) [Example 88, α-Butyl-4-{[(4-hydroxyphenyl)amino]-carbonyl}-1H-imidazole-1-acetic acid hydrochloride], 22%.

Turning to `CCCCCCC(C(=O)O)n1cnc(NC(=O)c2cccc(NC(C)=O)c2C(=O)O)c1` (stereo not drawn) [Example 97, α-Hexyl-4-{[3-(acetylamino)-2-carboxybenzoyl]amino}-1H-imidazole-1-acetic acid hemihydrate], the Kb in assay [1] (setting [2]) is 0.24 µM.
